Data set [1] concerns the target T1, Ecdysteroid receptor complexes extracted from BII cells (Drosophila melanogaster, UniProt P34021).
T1 sequence (P34021 1-878): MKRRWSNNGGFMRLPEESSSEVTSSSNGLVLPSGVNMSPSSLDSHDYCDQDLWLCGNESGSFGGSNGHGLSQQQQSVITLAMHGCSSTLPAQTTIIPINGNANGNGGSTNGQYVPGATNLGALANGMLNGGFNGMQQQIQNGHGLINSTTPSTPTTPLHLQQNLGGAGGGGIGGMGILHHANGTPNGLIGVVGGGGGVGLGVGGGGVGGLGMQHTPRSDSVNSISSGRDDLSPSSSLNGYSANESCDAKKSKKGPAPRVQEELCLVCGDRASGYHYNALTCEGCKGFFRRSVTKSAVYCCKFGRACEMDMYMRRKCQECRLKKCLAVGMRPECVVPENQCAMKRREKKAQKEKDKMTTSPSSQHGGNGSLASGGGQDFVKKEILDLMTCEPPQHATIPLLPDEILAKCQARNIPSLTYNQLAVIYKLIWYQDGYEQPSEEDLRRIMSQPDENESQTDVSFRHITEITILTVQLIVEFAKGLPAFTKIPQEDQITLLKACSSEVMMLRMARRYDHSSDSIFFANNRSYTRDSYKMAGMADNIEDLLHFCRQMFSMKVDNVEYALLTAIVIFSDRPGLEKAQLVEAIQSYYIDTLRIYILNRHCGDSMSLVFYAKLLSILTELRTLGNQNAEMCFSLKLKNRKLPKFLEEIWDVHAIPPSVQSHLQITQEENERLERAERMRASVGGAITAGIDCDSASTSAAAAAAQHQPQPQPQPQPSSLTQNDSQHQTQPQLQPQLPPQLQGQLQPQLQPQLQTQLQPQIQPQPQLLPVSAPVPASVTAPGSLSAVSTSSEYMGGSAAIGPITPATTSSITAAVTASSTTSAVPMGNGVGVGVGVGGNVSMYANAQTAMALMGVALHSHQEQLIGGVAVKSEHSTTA
T1 sequence (P20153 1-508 partner): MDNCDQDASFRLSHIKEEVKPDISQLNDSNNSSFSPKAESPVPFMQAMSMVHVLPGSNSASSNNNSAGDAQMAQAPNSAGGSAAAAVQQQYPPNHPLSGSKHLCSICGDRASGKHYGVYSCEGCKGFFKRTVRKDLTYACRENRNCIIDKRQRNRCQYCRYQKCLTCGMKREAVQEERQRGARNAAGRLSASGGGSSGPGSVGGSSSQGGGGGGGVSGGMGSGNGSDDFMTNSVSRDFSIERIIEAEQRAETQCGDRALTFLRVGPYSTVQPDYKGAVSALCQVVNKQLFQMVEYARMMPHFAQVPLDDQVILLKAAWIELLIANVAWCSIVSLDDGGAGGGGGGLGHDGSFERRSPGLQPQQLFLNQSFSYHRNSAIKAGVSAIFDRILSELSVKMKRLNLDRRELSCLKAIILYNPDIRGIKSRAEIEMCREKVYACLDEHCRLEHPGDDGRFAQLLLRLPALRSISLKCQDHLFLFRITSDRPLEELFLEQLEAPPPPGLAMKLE
The experiment in a line: Cell-free receptor assay with receptor complexes extracted from BII cells. The settings on record: ratio of Kd in cell-free BII extract to EC50 in BII bioassay. It is filed as binding.

The format of data set [2] is physicochemical. The note with it: after attempted synthesis.
The subject of data set [3] is insect EcR proteins when expressed in mammalian cells and partnered by RXR. The note with it: altered ligand specificity and affinity; no reference given; cited from earlier work.
In the next data set the test system is BII cells. The note with it: ref Dinan, 1985; cited from earlier work.

Consider `CC(C)CC[C@@H](O)[C@](C)(O)[C@H]1CC[C@@]2(O)C3=CC(=O)[C@@H]4C[C@@H](O)[C@@H](O)C[C@]4(C)[C@H]3[C@H](O)C[C@]12C` [compound 8, ajugasterone C], for which, in data set [1], the Kd/EC50 entry is “very low”.
The same measure, in the same setting: the value for `CC(C)(O)CC[C@@H](O)[C@](C)(O)[C@H]1CC[C@@]2(O)C3=CC(=O)[C@@H]4C[C@@H](O)[C@@H](O)C[C@]4(C)[C@H]3[C@H](O)C[C@]12C` [compound 1, turkesterone] was “very low”.
Consider `CC(C)(O)CC[C@@H](O)[C@](C)(O)[C@H]1CC[C@@]2(O)C3=CC(=O)[C@@H]4C[C@@H](O)[C@@H](O)C[C@]4(C)[C@H]3[C@H](OC(=O)c3ccccc3)C[C@]12C` [turkesterone 11α-benzoate], for which the stability of product entry in data set [2] is listed as “unstable, degrading rapidly back to turkesterone”.
As for `CC(C)CC[C@@H](O)[C@](C)(O)[C@H]1CC[C@@]2(O)C3=CC(=O)[C@]4(O)C[C@@H](O)[C@@H](O)C[C@]4(C)[C@H]3[C@H](O)C[C@]12C` [compound 9, muristerone A], the “activity with insect EcR/RXR in mammalian cells” value in data set [3] is recorded as “active, but micromolar concentrations are required”. Moreover, in data set [1], the Kd/EC50 result is “very low”.
With `CC(C)(O)CC[C@@H](O)[C@](C)(O)[C@H]1CC[C@@]2(O)C3=CC(=O)[C@@H]4C[C@@H](O)[C@@H](O)C[C@]4(C)[C@H]3CC[C@]12C` [compound 6, 20-hydroxyecdysone], the “metabolism by BII cells” value with BII cells is reported as “do not metabolise”.

The values above are taken from publication PMC524646 (Journal of Insect Science, 2003).
